Data as given in patent US20230312550A1, “N-(2-(4-CYANOTHIAZOLIDIN-3-YL)-2-OXOETHYL)-QUINOLINE-4-CARBOXAMIDES” (AstraZeneca AB, priority 2020, published 2023).
≈ marks a conversion by molar mass, not a printed value.

Tests used:
[1] = Metabolic stability in human hepatocytes (hHep); format: in vitro ADME; conditions: n = 1 or geometric mean of n = 2
FAP [2] = biological target: FAP (Mus musculus (Mouse), UniProt P97321); test: FAP plasma inhibition assay, mouse plasma; format: biochemical; conditions: mouse plasma diluted 1:67, Ala-Pro-AMC 75 μM
Chain of FAP (Mus musculus (Mouse), UniProt P97321) (P97321 24-761): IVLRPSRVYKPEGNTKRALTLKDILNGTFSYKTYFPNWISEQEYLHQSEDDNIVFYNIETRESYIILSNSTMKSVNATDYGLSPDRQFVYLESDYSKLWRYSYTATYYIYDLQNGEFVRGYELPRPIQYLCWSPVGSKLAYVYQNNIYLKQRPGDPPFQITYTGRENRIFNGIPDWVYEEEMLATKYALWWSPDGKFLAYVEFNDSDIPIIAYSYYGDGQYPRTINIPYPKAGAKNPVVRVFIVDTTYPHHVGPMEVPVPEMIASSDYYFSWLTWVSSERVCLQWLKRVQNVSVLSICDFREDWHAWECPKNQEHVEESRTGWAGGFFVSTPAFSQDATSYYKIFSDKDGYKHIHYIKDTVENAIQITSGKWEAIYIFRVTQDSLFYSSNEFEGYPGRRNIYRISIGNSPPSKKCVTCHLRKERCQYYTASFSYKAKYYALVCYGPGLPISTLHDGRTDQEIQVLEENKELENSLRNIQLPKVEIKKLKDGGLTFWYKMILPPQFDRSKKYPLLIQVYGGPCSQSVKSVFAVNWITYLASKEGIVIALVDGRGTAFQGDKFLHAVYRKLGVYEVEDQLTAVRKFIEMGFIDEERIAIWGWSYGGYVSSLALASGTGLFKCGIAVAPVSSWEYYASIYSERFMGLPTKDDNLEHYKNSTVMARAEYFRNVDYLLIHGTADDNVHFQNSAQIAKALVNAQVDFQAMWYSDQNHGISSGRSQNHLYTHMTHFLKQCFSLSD
Method in brief: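 K2EDTA plasma served as enzyme source, human diluted 1:40 and mouse 1:67, in PBS with 0.1% BSA. Compounds ran as a 10-point 3-fold series from 500 nM final, in duplicate, 40 min at rt in the dark, with fluorescence read against a pre-substrate blank. IC50 came from % inhibition versus log concentration.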

hFAP (M39-A757) = hFAP (M39-A757) (Homo sapiens (Human), UniProt Q12884); test: hFAP binding assay (surface plasmon resonance); conditions: SPR, 20° C.; for hFAP Binding assay k(off) / hFAP Binding assay k(on): single cycle kinetics; for Kd: n = 1 or geometric mean n = 2-4
Chain of hFAP (M39-A757) (Q12884 39-757): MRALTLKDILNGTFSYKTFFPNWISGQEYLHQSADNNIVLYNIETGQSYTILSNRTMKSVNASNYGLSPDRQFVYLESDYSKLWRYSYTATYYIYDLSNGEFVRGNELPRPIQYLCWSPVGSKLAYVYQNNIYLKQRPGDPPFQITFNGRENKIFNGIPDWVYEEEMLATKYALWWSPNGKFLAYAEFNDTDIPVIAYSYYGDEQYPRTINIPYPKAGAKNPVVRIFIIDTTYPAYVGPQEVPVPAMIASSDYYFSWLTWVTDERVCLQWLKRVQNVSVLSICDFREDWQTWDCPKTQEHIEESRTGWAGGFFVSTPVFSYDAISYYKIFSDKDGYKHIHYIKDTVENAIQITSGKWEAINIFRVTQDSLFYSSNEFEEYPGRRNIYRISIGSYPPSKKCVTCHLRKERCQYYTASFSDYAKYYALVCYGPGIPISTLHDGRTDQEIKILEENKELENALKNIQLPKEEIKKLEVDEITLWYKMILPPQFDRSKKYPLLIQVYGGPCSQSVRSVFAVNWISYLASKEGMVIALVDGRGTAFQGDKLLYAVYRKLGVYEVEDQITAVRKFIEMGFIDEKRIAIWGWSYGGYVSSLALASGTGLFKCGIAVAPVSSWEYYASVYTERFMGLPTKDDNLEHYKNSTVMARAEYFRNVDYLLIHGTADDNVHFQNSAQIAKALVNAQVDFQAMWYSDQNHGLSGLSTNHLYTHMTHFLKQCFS

Caco-2 cell permeability = conditions: human
Protocol: Caco-2 cell permeability was measured as described in Mol Pharm 2017, 14, 1601.

[3] = Metabolic stability in rat hepatocytes (rHep); conditions: n = 1 or geometric mean of n = 2-3
Kinetic solubility = conditions: kinetic from dmso stock, Solubility, kinetic solubility; n = 1 or average of n = 2-3
Protocol: Kinetic solubility was measured as described in Comput Aided Mol Des 2015, 29, 795.

FAP [4] = biological target: T1, FAP (Homo sapiens (Human), UniProt Q12884); test: FAP plasma inhibition assay, human plasma; format: biochemical; conditions: human plasma diluted 1:40, Ala-Pro-AMC 75 μM
Protocol: This assay was adapted from the method described in Example 237 for detection of FAP target engagement enzyme activity in plasma. Plasma (anticoagulant K2EDTA) was used as the enzyme source: Human plasma (Pooled from AZ Biobank), Mouse plasma (AZ AST Biobank), and Cynomolgus plasma (BioIVT, #NHP00PLK2FNN, lot CYN222895). 384-Well black fluotrack PS plates (Greiner 781076) were used. 20 μL diluted plasma (Cynomolgus and Human plasma dilution 1:40, Mouse plasma dilution 1:67) in buffer (PBS, 0.1% BSA) was added to 0.6 μL compounds (in DMSO). Compounds were tested using 10 CR, 3 fold dilution series from 500 nM FAC. Two replicates for each assay point were run on the same plate. A fluorescence blank read was taken before substrate addition. […] Plates were incubated for 40 min at rt in the dark. […] IC50 values were determined by plotting % inhibition versus log compound concentration.
Target sequence in this assay (Q12884 24-760): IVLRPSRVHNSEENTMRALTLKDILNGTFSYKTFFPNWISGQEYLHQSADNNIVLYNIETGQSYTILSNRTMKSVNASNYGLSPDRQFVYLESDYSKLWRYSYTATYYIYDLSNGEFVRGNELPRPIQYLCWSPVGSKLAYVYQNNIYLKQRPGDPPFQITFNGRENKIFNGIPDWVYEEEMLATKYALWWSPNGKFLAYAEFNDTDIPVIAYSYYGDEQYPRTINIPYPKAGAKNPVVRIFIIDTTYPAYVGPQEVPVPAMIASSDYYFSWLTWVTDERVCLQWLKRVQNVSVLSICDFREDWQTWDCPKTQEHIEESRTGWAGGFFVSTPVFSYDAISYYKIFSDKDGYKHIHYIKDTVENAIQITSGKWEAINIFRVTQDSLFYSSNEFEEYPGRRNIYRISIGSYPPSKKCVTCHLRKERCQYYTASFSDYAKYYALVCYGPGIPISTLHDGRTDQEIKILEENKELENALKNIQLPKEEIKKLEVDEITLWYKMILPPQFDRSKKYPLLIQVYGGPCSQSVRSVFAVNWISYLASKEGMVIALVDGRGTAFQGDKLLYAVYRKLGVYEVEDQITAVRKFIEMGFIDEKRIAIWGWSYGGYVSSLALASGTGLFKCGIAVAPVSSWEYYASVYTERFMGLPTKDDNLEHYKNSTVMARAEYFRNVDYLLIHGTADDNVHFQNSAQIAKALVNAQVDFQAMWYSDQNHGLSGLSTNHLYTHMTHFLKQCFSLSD

[5] = Metabolic stability in human liver microsomes (HLM); conditions: human, HLM CLint, n = 1 or average of n = 2-3
Protocol: Metabolic stability in HLM was measured as described in J Comput Aided Mol Des 2015, 29, 795.

[6] = biological target: Prolyl endopeptidase, Prolyl Oligopeptidase (hPREP) (Homo sapiens (Human), UniProt P48147); test: hPrep inhibition assay; format: biochemical; conditions: hPREP 0.6 nM, Z-Gly-Pro-amino-methylcoumarin 50 μM; read-out: PREP IC50
Chain of Prolyl endopeptidase, Prolyl Oligopeptidase (hPREP) (P48147 whole entry): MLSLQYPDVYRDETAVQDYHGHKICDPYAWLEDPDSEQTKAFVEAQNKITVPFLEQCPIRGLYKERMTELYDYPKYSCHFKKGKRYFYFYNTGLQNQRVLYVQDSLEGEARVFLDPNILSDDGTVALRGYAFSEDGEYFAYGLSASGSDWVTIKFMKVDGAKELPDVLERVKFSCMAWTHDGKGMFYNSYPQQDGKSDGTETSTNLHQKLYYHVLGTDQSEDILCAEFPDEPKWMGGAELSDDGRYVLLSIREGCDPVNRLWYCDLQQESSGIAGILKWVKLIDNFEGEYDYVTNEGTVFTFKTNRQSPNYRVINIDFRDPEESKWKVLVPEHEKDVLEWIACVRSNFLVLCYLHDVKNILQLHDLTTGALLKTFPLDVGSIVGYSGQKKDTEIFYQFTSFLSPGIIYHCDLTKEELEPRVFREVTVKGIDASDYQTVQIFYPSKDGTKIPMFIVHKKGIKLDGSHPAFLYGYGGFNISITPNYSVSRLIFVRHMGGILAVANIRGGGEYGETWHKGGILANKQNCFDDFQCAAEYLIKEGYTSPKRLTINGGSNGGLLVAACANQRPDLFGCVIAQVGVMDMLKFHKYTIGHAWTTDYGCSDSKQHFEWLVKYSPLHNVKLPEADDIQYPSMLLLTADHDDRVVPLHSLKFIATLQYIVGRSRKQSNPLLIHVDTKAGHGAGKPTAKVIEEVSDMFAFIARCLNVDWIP
Method in brief: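 Fluorogenic read-out (340 nm excitation, 460 nm emission) after 20 min at rt, using 50 μM final Z-Gly-Pro-aminomethylcoumarin and 0.6 nM final enzyme, following 15 min compound preincubation. Buffer pH 7.5 with glutathione and Triton X-100. IC50 via one-site model on % inhibition vs log concentration.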

[7] = biological target: human Fibroblast activation protein alpha (hFAP) (Homo sapiens (Human), UniProt Q12884); test: hFAP inhibition assay (tight binders); format: biochemical; conditions: Ala-Pro-AMC 20 μM, n = 1 or geometric mean n = 2-6; further: hFAP 2.4 pM
Chain of human Fibroblast activation protein alpha (hFAP) (Q12884 38-760): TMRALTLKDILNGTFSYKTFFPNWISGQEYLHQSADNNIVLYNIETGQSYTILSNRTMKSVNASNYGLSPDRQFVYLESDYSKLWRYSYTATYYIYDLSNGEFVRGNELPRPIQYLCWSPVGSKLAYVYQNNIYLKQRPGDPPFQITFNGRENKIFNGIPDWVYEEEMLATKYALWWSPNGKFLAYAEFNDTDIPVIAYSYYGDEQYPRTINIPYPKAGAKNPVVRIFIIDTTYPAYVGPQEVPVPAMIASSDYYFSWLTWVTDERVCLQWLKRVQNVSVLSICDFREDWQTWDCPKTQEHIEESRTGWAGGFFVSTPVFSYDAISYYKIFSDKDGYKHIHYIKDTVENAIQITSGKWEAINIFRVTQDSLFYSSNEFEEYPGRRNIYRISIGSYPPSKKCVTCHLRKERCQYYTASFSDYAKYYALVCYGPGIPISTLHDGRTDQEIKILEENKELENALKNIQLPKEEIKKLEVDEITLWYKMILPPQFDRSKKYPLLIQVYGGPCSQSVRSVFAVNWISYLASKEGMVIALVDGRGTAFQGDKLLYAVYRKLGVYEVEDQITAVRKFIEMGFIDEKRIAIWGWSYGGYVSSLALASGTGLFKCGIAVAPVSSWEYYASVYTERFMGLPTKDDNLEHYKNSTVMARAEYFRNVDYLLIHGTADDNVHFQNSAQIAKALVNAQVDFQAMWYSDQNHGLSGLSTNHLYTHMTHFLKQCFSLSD
Protocol: The plates were read on a PHERAstar® reader with excitation 340 nm and emission 460 nm. Data were analyzed in Genedata Screener®. IC50 values were determined by plotting % inhibition versus log compound concentration and using a one site dose response model.

FAP [8] = biological target: T1, FAP; test: hFAP inhibition assay; format: biochemical; conditions: hFAP […], Ala-Pro-AMC 20 μM; n = 1 or geometric mean n = 2-3
Method in brief: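 Compounds (10-point, 3-fold dilutions from 50 μM top) were preincubated 15 min at rt in the dark with 0.48 nM hFAP in pH 7.4 Tris/NaCl/Chaps buffer. Reaction was started with substrate (40 μM solution) and ran 30 min at rt. Read by fluorescence (340/460 nm); IC50 from one-site fit.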
Target sequence in this assay (Q12884 38-760): as above

Structure (SMILES)	hHep CLint [1] [μL/min/1E6]	IC50 (FAP [2]) [nM]	hFAP Binding assay k(off) (hFAP (M39-A757)) [s⁻¹]	hFAP Binding assay k(on) (hFAP (M39-A757)) [M⁻¹ s⁻¹]	Kd (hFAP (M39-A757)) [nM]	Papp (Caco-2 cell permeability) [×10⁻⁶ cm/s]	Papp A→B (Caco-2 cell permeability) [×10⁻⁶ cm/s]	Papp B→A (Caco-2 cell permeability) [×10⁻⁶ cm/s]	efflux ratio (Caco-2 cell permeability)	rHep CLint [3] [μL/min/1E6]	solubility (Kinetic solubility) [µM]	IC50 (FAP [4]) [nM]	microsomal CLint [5] [µL/min/mg]	IC50 [6] [nM]	IC50 [7] [nM]	IC50 (FAP [8]) [nM]
N#C[C@@H]1CSCN1C(=O)CNC(=O)c1c(F)cnc2ccc(N3CCOCC3)cc12 [Example 2, (R)—N-(2-(4-Cyanothiazolidin-3-yl)-2-oxoethyl)-3-fluoro-6-morpholino-quinoline-4-carboxamide]	<1	7.3	0.0038	410000	9.5	23	0.98	31	32	3	83 (≈ 35.6 µg/mL)	8.1	22	1700	0.52	
CC1(C)OCCN(c2ccc3nccc(C(=O)NCC(=O)N4CSC[C@H]4C#N)c3c2)C1=O [Example 16, (R)—N-(2-(4-Cyanothiazolidin-3-yl)-2-oxoethyl)-6-(2,2-dimethyl-3-oxomorpholino)quinoline-4-carboxamide]		0.4	0.000041	740000	0.054		0.16	4.2	26	<1	170 (≈ 77.1 µg/mL)	0.2	< 3	1600	0.11	
N#C[C@@H]1CSCN1C(=O)CNC(=O)c1ccnc2ccc(N3CC(C(F)F)C3)cc12 [Example 28, (R)—N-(2-(4-Cyanothiazolidin-3-yl)-2-oxoethyl)-6-(3-(difluoromethyl)-azetidin-1-yl)quinoline-4-carboxamide]	2.6	0.5	0.00011	1100000	0.11	21	1.6	20	12	13	73 (≈ 31.5 µg/mL)	0.2	< 3	580	0.1	0.26
N#C[C@@H]1CSCN1C(=O)CNC(=O)c1ccnc2ccc(N3C[C@@H](F)[C@@H](F)C3)cc12 [Example 50, N-(2-((R)-4-Cyanothiazolidin-3-yl)-2-oxoethyl)-6-((3R,4S)-3,4-difluoropyrrolidin-1-yl)quinoline-4-carboxamide]	1.7	0.5			0.071		0.83	27	32	20	33 (≈ 14.2 µg/mL)	0.3	13	540	0.069	0.34
N#C[C@@H]1CSCN1C(=O)CNC(=O)c1ccnc2ccc(N3CCO[C@H](C(F)(F)F)C3)cc12 [Example 74, N-(2-((R)-4-Cyanothiazolidin-3-yl)-2-oxoethyl)-6-((S)-2-(trifluoromethyl)-morpholino)quinoline-4-carboxamide]	<1	0.3	0.00016	1100000	0.14		1.8	53	29	13	180 (≈ 86.3 µg/mL)	0.2	28	2300	0.094	
CC(F)(F)C1CN(c2ccc3nccc(C(=O)NCC(=O)N4CSC[C@H]4C#N)c3c2)C1 [Example 147, (R)—N-(2-(4-Cyanothiazolidin-3-yl)-2-oxoethyl)-6-(3-(1,1-difluoroethyl)-azetidin-1-yl)quinoline-4-carboxamide]		0.2	0.00012	2800000	0.045		2.7	40	15	2.9	40 (≈ 17.8 µg/mL)	0.1	17	570	0.067	
N#C[C@@H]1CSCN1C(=O)CNC(=O)c1ccnc2ccc(N3CC(F)(CF)C3)cc12 [Example 157, (R)—N-(2-(4-Cyanothiazolidin-3-yl)-2-oxoethyl)-6-(3-fluoro-3-(fluoromethyl)azetidin-1-yl)quinoline-4-carboxamide]	<1	0.6	0.00012	1900000	0.065		2	29	15	<1	62 (≈ 26.8 µg/mL)	0.3	7.3	1200	0.37	

The next lines start with the values.

hHep CLint [1] [μL/min/1E6]	IC50 (FAP [2]) [nM]	hFAP Binding assay k(off) (hFAP (M39-A757)) [s⁻¹]	hFAP Binding assay k(on) (hFAP (M39-A757)) [M⁻¹ s⁻¹]	Kd (hFAP (M39-A757)) [nM]	Papp (Caco-2 cell permeability) [×10⁻⁶ cm/s]	Papp A→B (Caco-2 cell permeability) [×10⁻⁶ cm/s]	Papp B→A (Caco-2 cell permeability) [×10⁻⁶ cm/s]	efflux ratio (Caco-2 cell permeability)	rHep CLint [3] [μL/min/1E6]	solubility (Kinetic solubility) [µM]	IC50 (FAP [4]) [nM]	microsomal CLint [5] [µL/min/mg]	IC50 [6] [nM]	IC50 [7] [nM]	IC50 (FAP [8]) [nM]	Structure (SMILES)
	0.4	0.00024	1900000	0.13		0.54	25	46	7.2	800 (≈ 325 µg/mL)	0.2	12	87	0.26	0.44	Cn1nccc1-c1ccc2nccc(C(=O)NCC(=O)N3CSC[C@H]3C#N)c2c1 [Example 174, (R)—N-(2-(4-Cyanothiazolidin-3-yl)-2-oxoethyl)-6-(1-methyl-1H-pyrazol-5-yl)quinoline-4-carboxamide]
	0.1	0.00017	3100000	0.053					7.2	6 (≈ 2.6 µg/mL)	0.1	16	120	0.042	0.2	COc1ccc(-c2ccc3nccc(C(=O)NCC(=O)N4CSC[C@H]4C#N)c3c2)cn1 [Example 178, (R)—N-(2-(4-Cyanothiazolidin-3-yl)-2-oxoethyl)-6-(6-methoxypyridin-3-yl)quinoline-4-carboxamide]
	1.4	0.000061	190000	0.33		0.4	4.8	12	1.8	830 (≈ 366 µg/mL)	0.9	< 3	1200	0.39		CN1CCC(F)(c2ccc3nccc(C(=O)NCC(=O)N4CSC[C@H]4C#N)c3c2)CC1 [Example 195, (R)—N-(2-(4-Cyanothiazolidin-3-yl)-2-oxoethyl)-6-(4-fluoro-1-methyl-piperidin-4-yl)quinoline-4-carboxamide]
